How the values were obtained:
[1] = target: T1, r-erg1 (Rattus norvegicus, UniProt O08962); assay: Effect of retigabine on cloned potassium channels, patch clamp; type: cell-based; settings: r-erg1, CHO cells
T1 construct: expressed in transfected cells; host or cells: CHO cells (liposome cDNA transfection)
T1 sequence (O08962 1-1163): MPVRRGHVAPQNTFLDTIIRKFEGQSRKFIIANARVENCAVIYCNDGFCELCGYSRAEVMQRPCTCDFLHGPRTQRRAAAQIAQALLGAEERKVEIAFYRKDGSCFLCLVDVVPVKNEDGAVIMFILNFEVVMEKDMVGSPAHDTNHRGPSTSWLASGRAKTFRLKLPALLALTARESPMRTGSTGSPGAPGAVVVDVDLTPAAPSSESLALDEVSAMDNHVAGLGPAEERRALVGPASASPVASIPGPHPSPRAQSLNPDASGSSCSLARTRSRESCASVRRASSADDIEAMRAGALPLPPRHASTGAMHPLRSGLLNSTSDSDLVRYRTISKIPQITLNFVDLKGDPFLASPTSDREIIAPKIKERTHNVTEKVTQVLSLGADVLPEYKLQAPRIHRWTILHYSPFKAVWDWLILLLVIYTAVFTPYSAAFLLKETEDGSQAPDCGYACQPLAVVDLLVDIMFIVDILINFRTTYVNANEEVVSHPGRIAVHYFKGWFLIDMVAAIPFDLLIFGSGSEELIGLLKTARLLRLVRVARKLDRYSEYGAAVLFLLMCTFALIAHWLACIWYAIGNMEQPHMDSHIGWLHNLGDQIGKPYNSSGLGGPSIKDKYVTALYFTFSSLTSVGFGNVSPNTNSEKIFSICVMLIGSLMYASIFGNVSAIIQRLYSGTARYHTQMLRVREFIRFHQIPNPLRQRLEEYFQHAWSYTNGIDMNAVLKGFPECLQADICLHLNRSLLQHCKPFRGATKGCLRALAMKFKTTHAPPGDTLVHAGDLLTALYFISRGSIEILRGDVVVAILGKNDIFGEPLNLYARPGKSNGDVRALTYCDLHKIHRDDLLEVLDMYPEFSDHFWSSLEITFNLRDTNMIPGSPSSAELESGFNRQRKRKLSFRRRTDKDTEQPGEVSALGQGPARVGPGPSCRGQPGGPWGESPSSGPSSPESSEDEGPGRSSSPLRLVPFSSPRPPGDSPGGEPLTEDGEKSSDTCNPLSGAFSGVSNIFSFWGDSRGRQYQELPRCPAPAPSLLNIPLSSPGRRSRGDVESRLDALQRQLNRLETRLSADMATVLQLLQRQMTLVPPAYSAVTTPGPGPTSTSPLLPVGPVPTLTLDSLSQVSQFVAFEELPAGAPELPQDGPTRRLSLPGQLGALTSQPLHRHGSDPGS
Procedure: For the experiments with xenopus oocytes, the experimental amounts known to be successful for transfections i.e. 500 pg to 37 ng, of hereditary information (cRNA) for the channel to be investigated, which is known from the literature, present as clone and replicated by means of a polymerase chain reaction, was applied by pressure injection into the egg cells. After this treatment, the oocytes were placed in a nutrient medium and kept alive. After one week, the egg cells were brought individually into a recording chamber and, using the two-electrode voltage clamp method, investigated electrophysiologically. For this purpose, the egg cells, starting out from a holding potential of −80 mV, were hyperpolarized and depolarized for, in each case, 2 seconds, in 10 mV steps to different membrane potentials between −130 and +30 mV and the resulting membrane current was measured. These experiments were carried out in the presence of a control solution as well as of 1, 10 and 100 μM of retigabine and the current voltage curves obtained were compared. […] In addition, in accordance with a method already described (Rundfeldt, 1999b), retigabine was added at a concentration of 10 μM to cells, which were slightly depolarized (−60 or −50 mV), and the current induced thereby was quantified. The latter method was employed in order to quantify the currents shown in the Table and induced by retigabine. […]

[2] = target: Kv1.2 (Homo sapiens, UniProt P16389); settings: literature, Wang et al.; cited from earlier work
Kv1.2, sequence (P16389 whole entry): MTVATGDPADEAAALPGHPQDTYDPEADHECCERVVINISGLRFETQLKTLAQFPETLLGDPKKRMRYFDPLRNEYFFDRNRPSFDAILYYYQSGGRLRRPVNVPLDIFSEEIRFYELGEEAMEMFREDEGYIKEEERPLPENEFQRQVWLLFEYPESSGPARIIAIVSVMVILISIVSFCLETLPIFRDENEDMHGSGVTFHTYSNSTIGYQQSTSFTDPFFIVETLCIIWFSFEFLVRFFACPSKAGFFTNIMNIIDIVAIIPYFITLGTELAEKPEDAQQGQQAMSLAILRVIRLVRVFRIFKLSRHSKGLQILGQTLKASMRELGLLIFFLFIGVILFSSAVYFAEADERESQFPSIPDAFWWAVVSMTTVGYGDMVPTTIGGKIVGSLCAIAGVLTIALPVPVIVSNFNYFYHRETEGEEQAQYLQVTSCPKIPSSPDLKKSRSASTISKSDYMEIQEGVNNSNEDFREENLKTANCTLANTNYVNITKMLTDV

[3] = target: T2, Kv4.3 (Homo sapiens, UniProt Q9UK17); settings: literature, Wang et al.; cited from earlier work
T2 sequence (Q9UK17 1-655): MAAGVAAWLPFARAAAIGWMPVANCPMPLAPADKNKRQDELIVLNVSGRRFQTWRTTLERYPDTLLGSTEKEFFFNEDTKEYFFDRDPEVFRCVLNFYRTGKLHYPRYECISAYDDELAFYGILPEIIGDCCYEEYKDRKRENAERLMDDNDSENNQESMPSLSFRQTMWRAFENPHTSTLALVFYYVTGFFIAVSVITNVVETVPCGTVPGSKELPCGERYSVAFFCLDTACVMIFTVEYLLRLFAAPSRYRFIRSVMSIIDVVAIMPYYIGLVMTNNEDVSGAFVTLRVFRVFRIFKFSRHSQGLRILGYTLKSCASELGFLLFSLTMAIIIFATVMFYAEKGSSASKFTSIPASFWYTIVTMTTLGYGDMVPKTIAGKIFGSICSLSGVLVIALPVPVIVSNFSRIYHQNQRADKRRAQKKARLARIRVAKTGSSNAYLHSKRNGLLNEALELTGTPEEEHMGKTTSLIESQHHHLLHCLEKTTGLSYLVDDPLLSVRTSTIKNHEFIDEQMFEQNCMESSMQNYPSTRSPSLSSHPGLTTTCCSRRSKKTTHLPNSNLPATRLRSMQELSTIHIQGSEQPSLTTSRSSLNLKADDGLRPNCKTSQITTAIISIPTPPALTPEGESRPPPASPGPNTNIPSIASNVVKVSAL

[4] = target: erg1 (Homo sapiens, UniProt Q12809); settings: literature, Wang et al.; cited from earlier work
erg1, sequence (Q12809 whole entry): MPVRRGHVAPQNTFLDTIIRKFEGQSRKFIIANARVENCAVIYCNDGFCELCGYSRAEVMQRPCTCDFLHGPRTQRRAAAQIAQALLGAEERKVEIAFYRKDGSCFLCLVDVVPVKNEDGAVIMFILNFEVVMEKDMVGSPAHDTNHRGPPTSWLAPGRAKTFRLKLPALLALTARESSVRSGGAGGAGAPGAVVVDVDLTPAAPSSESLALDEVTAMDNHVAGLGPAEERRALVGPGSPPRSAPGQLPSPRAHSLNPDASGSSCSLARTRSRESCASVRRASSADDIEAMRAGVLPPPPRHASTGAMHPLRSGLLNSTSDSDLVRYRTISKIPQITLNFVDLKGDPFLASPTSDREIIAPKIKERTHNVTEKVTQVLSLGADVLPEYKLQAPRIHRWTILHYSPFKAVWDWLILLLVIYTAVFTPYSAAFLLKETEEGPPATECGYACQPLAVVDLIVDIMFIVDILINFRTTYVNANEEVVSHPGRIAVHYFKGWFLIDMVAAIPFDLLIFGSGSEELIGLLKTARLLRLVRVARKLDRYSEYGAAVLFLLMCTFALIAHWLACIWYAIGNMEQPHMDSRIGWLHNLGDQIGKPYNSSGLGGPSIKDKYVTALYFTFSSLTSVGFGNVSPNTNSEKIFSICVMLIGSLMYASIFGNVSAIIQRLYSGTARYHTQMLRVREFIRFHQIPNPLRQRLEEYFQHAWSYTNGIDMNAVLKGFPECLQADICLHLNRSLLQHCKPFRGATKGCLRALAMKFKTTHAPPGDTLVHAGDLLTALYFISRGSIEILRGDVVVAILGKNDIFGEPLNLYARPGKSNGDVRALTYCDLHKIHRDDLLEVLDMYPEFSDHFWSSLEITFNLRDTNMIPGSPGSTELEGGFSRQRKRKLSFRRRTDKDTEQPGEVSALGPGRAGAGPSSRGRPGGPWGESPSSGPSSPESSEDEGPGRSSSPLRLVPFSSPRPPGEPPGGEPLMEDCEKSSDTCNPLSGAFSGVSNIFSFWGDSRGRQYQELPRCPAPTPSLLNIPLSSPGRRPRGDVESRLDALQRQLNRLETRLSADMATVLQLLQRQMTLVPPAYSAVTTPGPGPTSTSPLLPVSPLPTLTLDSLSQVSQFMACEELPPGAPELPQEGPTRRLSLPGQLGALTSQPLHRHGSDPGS

[5] = target: T3, eag1 (Homo sapiens, UniProt O95259); settings: literature, Wang et al.; cited from earlier work
T3 sequence (O95259 1-989): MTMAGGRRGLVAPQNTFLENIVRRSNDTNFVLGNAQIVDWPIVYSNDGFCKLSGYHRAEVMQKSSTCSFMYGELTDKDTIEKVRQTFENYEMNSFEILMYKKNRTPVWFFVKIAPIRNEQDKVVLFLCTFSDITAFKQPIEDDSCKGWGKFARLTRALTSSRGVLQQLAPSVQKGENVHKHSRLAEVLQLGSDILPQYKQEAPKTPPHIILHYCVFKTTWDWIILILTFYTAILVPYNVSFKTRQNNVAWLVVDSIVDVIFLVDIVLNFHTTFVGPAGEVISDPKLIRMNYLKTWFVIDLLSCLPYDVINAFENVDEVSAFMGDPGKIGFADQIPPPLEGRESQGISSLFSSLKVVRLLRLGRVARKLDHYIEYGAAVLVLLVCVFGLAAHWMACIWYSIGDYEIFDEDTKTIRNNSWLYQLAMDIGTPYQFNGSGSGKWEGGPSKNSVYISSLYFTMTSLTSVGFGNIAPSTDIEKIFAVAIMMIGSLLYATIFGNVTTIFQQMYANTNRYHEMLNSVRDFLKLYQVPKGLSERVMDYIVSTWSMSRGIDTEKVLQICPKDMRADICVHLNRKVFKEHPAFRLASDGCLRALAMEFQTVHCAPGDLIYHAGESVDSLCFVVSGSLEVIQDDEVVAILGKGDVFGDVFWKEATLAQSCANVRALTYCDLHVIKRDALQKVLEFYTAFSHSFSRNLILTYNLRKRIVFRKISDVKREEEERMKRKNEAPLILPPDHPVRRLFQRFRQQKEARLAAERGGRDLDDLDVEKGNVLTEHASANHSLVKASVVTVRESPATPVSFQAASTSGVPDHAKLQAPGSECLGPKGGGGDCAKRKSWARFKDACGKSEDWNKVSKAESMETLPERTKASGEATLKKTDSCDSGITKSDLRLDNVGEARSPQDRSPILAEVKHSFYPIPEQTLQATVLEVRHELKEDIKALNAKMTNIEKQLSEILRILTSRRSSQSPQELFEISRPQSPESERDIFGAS

[6] = target: T4, erg3 (Homo sapiens, UniProt Q9NS40); settings: literature, Wang et al.; cited from earlier work
T4 sequence (Q9NS40 1-1196): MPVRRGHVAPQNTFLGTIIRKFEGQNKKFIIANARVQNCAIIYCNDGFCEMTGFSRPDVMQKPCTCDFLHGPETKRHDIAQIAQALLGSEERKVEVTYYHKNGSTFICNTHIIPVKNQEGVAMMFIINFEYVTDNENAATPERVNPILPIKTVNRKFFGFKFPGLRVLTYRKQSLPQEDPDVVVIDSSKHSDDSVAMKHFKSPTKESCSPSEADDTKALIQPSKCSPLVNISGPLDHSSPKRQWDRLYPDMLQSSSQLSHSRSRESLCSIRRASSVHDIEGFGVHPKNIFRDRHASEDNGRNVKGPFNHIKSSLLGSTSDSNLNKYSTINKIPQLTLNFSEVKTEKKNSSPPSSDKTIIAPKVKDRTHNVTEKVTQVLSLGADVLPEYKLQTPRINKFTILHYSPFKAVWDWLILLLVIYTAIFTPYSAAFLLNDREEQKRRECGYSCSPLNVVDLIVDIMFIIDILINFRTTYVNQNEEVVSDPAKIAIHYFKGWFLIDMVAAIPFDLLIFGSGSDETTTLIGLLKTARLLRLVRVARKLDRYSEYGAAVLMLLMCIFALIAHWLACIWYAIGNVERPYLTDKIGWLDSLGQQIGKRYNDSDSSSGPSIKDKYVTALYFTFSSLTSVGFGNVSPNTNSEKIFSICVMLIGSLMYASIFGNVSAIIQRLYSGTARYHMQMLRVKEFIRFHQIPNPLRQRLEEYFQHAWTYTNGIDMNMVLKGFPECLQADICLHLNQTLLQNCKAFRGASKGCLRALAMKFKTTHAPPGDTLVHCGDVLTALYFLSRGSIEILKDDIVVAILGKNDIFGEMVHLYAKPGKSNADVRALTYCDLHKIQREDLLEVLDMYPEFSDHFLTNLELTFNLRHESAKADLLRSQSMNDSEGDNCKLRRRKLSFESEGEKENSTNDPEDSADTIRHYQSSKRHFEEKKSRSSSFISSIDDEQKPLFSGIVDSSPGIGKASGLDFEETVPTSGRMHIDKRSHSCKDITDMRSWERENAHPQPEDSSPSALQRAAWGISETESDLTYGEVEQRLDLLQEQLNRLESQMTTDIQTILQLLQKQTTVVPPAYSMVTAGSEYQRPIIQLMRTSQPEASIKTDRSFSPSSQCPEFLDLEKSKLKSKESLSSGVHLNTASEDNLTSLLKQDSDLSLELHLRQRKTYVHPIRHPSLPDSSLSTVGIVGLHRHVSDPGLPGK

[7] = target: KCNQ1 channel (Homo sapiens, UniProt P51787); settings: literature, Wang et al.; cited from earlier work
[8] = target: M channel (=KCNQ2+KCNQ3) (Homo sapiens, UniProt O43525+O43526); settings: literature, Wang et al.; cited from earlier work
[9] = tested on: elk1; settings: literature, Wang et al.; cited from earlier work

Compound	Effect of 10 μM of Retigabine [1]	Effect on Kv1.2, with affinity similar to that for the M channel [2]	Effect on Kv4.3, with affinity similar to that for the M channel [3]	Effect on erg1, with affinity similar to that for the M channel [4]	Effect on eag1, with affinity similar to that for the M channel [5]	Effect on erg3, with affinity similar to that for the M channel [6]	Effect on KCNQ1, with affinity similar to that for the M channel [7]	Effect on the M channel [8]	Effect on elk1, with affinity similar to that for the M channel [9]
CCOC(=O)Nc1ccc(NCc2ccc(F)cc2)cc1N [retigabine, 2-amino-4-(4-fluorobenzylamino)-1-ethoxycarbonyl-aminobenzene]	No effect	–	–	–	–	–	–	–	–
O=C1N(c2ccccc2)c2ccccc2C1(Cc1ccncc1)Cc1ccncc1 [linopirdine]	–	blocked	blocked	blocked	blocked	blocked	blocked	blocks	blocked
O=C1c2ccccc2C(Cc2ccncc2)(Cc2ccncc2)c2ccccc21 [XE991]	–	–	inhibits	–	–	–	inhibits	block	–
